Results: patent publication US6174897A, “Bis-(quinolyl)-diamines” (Bayer Aktiengesellschaft, priority 1996, dated 2001)
pKi: −log10 of the molar value.

Tests used:
[1] = biological target: apamin binding sites / apamin receptors (bovine cerebral membrane, calf hippocampus); assay: Binding of 125I-apamin to bovine cerebral membrane; conditions: 125I-apamin 30 pM, calf hippocampus membranes
Description: 1) Binding of ^125 1I-apamine to Bovine Cerebral Membrane
Calf brains were obtained from the local abattoir. The hippocampus was prepared on ice and a membrane suspension was made up by homogenization twice in buffer (100 mM Tris-HCl, KCl 5 mM, pH 7.4) and centrifugation at 43,000×g. In a total volume of 500 μl, the incubation mixture contained 200 μg of membrane protein, 30 pM ^125 I-apamin and test substances in the concentration range 1×10^-9 to 1×10^-4 M. The non-specific binding of ^125 I-apamine was determined in the presence of 1×10^-7 M unlabelled apamin.
After preincubation for 30 min at room temperature (test substances and membrane homogenate), the samples were placed on ice for 10 min before the radioligand was added. The main incubation time was 60 min on ice. When the reaction time had elapsed, an excess of ice-cooled incubation buffer was added to each sample and the mixture was filtered with suction through cellulose acetate/nitrate membrane filters. The amount of bound ^125 I-apamin was measured with a gamma counter.

[2] = tested on: apamin-sensitive potassium channels (PC12 cells); assay: Non-radioactive Rb+ efflux assay in PC12 cells; format: cell-based
Description: 2) Non-radioactive Rb^+ Efflux Assay for the Identification of Potassium Channel Modulators
The cellular potassium in PC12 cells is exchanged with rubidium, which is not present in the cells. This exchange is performed by incubating the cells over a period of 4 h in a physiological buffer containing 5.4 mM RbCl without KCl. This rubidium subsequently serves as a tracer for potassium. The cells laden with Rb^+ in this way are washed three times and then stimulated by depolarization with 50 mM KCl to open potassium channels (10 min), causing Rb^+ to flow out of the cells into the supernatant according to the concentration gradient.
The rubidium contents in the cell supernatant and in the residual cells after they have been lysed with 1% Triton X-100 are then determined by means of atomic absorption spectroscopy. The relative proportion of rubidium in the cell supernatent (=Rb^+ efflux) is used as a measure of the potassium channel activity.
The effect of substances on the channel activity is measured by co-incubating the test substance over the ten-minute stimulation period and determining its effect on the Rb^+ efflux in the manner described above.

Q: With `CCc1cc(NCCCCCNc2cc(CC)nc3ccccc23)c2ccccc2n1` [Example 1] as the compound, how does the pKi [1] read?
A: 7.77

Q: And the “% inhibition of the Rb efflux” value ([2]; test concentration of 10 μM)?
A: 77%

Q: How did the pKi [1] turn out when `CCCc1cc(NCCCCCNc2cc(CCC)nc3ccccc23)c2ccccc2n1` [Example 2] was run?
A: 7.89

Q: How did the “% inhibition of the Rb efflux” value ([2]; at 1 μM) turn out when `Cc1cccc2c(NCCCCCNc3cc(C(C)C)nc4c(C)cccc34)cc(C(C)C)nc12` [Example 4] was run?
A: 68%

Q: And the “% inhibition of the Rb efflux” value ([2]; test concentration of 10 μM)?
A: 75%
